Here are results for 3 compounds from patent publication US20250213533A1 (GH RESEARCH IRELAND LIMITED, priority 2022, published 2025).

In one data set the target is T1, 5-HT1A receptors (Homo sapiens, UniProt P08908).
T1 construct: 5-HT1A and 5-HT2A receptors in post-mortem human brain tissue from the hippocampus and frontal cortex, respectively; tissue Edinburgh Sudden Death Brain Bank; host or cells: post-mortem human hippocampus membranes
T1 sequence (P08908 1-422): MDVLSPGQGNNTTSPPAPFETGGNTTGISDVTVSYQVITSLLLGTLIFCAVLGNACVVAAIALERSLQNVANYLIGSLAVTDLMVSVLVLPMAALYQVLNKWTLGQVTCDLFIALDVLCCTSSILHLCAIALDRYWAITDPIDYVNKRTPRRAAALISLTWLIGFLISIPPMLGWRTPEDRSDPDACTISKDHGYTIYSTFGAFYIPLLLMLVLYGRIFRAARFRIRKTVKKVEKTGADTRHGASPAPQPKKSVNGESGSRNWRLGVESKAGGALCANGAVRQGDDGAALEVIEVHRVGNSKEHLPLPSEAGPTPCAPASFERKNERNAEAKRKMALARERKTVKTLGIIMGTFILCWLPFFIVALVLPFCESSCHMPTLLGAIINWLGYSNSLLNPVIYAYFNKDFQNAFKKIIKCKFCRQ
Nature of the data set: Radioligand binding ([3H]8-OH-DPAT) to 5-HT1A receptors in post-mortem human hippocampus membranes.

In a further data set the target is T2, 5-HT2A receptors (Homo sapiens, UniProt P28223).
T2 construct: 5-HT1A and 5-HT2A receptors in post-mortem human brain tissue from the hippocampus and frontal cortex, respectively; tissue Edinburgh Sudden Death Brain Bank; host or cells: post-mortem human frontal cortex membranes
T2 sequence (P28223 whole entry): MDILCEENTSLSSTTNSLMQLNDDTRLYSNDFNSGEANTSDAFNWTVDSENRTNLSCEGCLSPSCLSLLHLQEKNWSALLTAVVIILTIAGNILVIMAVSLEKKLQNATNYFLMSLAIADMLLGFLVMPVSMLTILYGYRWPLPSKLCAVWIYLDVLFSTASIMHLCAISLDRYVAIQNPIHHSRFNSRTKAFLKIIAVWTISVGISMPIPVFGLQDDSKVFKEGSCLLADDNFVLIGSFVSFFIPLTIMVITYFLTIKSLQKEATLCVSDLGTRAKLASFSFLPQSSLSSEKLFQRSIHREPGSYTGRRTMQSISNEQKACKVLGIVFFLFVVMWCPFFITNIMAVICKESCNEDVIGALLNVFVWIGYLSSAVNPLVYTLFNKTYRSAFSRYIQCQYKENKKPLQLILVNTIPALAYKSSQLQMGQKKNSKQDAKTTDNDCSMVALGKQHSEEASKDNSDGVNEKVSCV
Nature of the data set: Radioligand binding ([3H]MDL-100,907) to 5-HT2A receptors in post-mortem human frontal cortex membranes.

Data set [1] is described as follows: Pharmacokinetics of 5-MeO-DMT and bufotenine after inhalation of 5-MeO-DMT in subjects. The data set is classed as in vivo, human.

On to `CN(C)CCc1c[nH]c2cccc(O)c12` [psilocin], for which the “affinity for 5-HT1A receptors (in words)” value at 5-HT1A receptors is recorded as “moderate affinity”. Besides, the “affinity for 5-HT2A receptors (in words)” value at 5-HT2A receptors was “moderate/strong affinity”.
In the case of `CN(C)CCc1c[nH]c2ccccc12` [DMT, N,N-dimethyltryptamine], the “affinity for 5-HT1A receptors (in words)” value at 5-HT1A receptors was “moderate affinity”. Further, the “affinity for 5-HT2A receptors (in words)” value on 5-HT2A receptors is “comparatively weak affinity”.
`CN(C)CCc1c[nH]c2ccc(O)cc12` [bufotenine]: the “bufotenine blood concentration above LLOQ (25 pg/ml)” value in data set [1] (metabolite after inhaled 5-MeO-DMT) is “Only in few samples”. Besides, in data set [1] (uptitration scheme), the “bufotenine observations when uptitration subjects were included” value is given as “Substantially similar observations”.
